# Reference: US10183949B2, “Pyrimidinone derivative having autotaxin-inhibitory activity” (The University of Tokyo, priority 2014, dated 2019)
# Biological target: T1, Human autotaxin enzyme (Homo sapiens, UniProt Q13822)
# T1 construct: purchased R&D System
# Assay: Evaluation of autotaxin inhibitor, 18:0 Lyso PC / choline assay (Test Example 2)
# Format: biochemical
# Conditions: autotaxin inhibition, IC50 class; read-out: Inhibitor activity
# Experimental: Solution B containing 100 mM Tris-HCl buffer (pH7.5), 150 mM NaCl, 5 mM MgCl2, and 0.05% Triton X-100 was prepared. Human autotaxin enzyme (purchased from R&D System) was diluted with Solution B, and 2.5 μl of which was added to a solution of test compound in DMSO. Furthermore, 2.5 μl of 200 μM 18:0 Lyso PC (purchased from Avanti Polar Lipids) in Solution B was added and allowed to react at room temperature for 2 hours. After completion of the reaction, 15 μl of the coline assay reagent. (100 mM Tris-HCl buffer (pH7.5), 5 mM. MgCl2, 77 μg/ml coline oxidase, 10 μg/ml peroxydase, 25μM 10-acetyl-3,7-dihydroxyphenoxazine, and excess autotaxin inhibitor) was added and allowed to react at room temperature for 20 minutes. The fluorescent dye Resorufin, which was produced by the reaction, was detected. The fluorescence was detected using ViewLux
# (PerkinElmer, Inc.) with a excitation wavelength of 531 nm and a fluorescence wavelength of 598 nm.
# The percent inhibition of the test compound was calculated by assuming the sample with no test compound as 0% inhibition and the sample with no enzyme as 100% inhibition, and the percent inhibitions at different concentrations of the test compound were plotted to obtain a concentration-dependent curve.
row,IC50 [nM],Compound
1,10 to 100,CSc1nc(-c2ccc(Cl)cc2NC(C)=O)cc(=O)n1CC(=O)NC1(C#N)CC1 [Compound I-0243]

# Same assay, conditions: human autotaxin enzyme, 18:0 Lyso PC substrate, choline assay, room temperature 2 hours; read-out: Inhibitor activity (IC50)
row,Compound,IC50 [nM]
1,CCCCCc1nc(-c2ccc(Cl)cc2)cc(=O)n1CC(=O)NCCO [Compound I-0027],100 to 1000
2,COC(=O)c1cncc(Cn2c(CCCC(F)(F)F)nc(-c3ccc(Cl)cc3)cc2=O)c1 [Compound I-0307],100 to 1000
3,CC(C)(CNC(=O)Cn1c(CCCC(F)(F)F)nc(-c2ccc(Cl)cc2)cc1=O)N1CCOCC1 [Compound I-0122],100 to 1000
4,O=C1CCC(CNC(=O)Cn2c(CCCC(F)(F)F)nc(-c3ccc(C(F)(F)F)cc3)cc2=O)CN1 (centres unmarked) [Compound I-0343],100 to 1000
5,O=C(NCc1cccnc1O)c1cccc(Cn2c(CCCC(F)(F)F)nc(-c3ccc(Cl)cc3)cc2=O)c1 [Compound I-0193],100 to 1000
6,CCCCCc1nc(-c2ccc(Cl)cc2)cc(=O)n1CC(=O)NCCC(=O)O [Compound I-0040],10 to 100
7,CCCCCc1nc(-c2ccc(Cl)cc2)cc(=O)n1CC(=O)OC [Compound I-0023],10 to 100
8,CCCCCc1nc(-c2ccc(Cl)cc2)cc(=O)n1CC(=O)NCc1ccc(C(=O)O)cc1 [Compound I-0041],10 to 100
9,CCCCCc1nc(-c2ccc(Cl)cc2)cc(=O)n1CC(=O)N[C@@H](CCc1ccccc1)C(=O)O [Compound I-0101],10 to 100
10,O=C(Cn1c(CCCC(F)(F)F)nc(-c2ccc(C(F)(F)F)cc2)cc1=O)N1CCC(O)C1 (centres unmarked) [Compound I-0319],100 to 1000
11,O=C(Cn1c(CCCC(F)(F)F)nc(-c2ccc(C(F)(F)F)cc2)cc1=O)NCC1(O)CCCCC1 [Compound I-0344],10 to 100
12,N#CC1(NC(=O)Cn2c(COCC3CC3)nc(-c3ccc(Cl)cc3)cc2=O)CC1 [Compound I-0209],10 to 100
13,CCCCCc1nc(-c2ccc(Cl)cc2)cc(=O)n1CC(=O)NC(C(=O)O)C(C)C (centres unmarked) [Compound I-0050],100 to 1000
14,O=C(Cn1c(CCCC(F)(F)F)nc(-c2ccc(Cl)cc2)cc1=O)N(CCO)CCO [Compound I-0117],10 to 100
15,Cc1nc(-c2ccc(Cl)cc2NC(=O)C2CC2)cc(=O)n1CC(=O)NCC1(CO)CC1 [Compound I-0434],10 to 100
16,Cc1nc(CNC(=O)c2cccc(Cn3c(CCCC(F)(F)F)nc(-c4ccc(Cl)cc4)cc3=O)c2)no1 [Compound I-0189],100 to 1000
17,COC(=O)Nc1cc(Cl)ccc1-c1cc(=O)n(CC(=O)NC2(c3nc(=O)o[nH]3)CC2)c(C)n1 [Compound I-0470],< 10
18,CNc1cc(Cl)ccc1-c1cc(=O)n(CC(=O)NC2(C#N)CC2)c(CCCC(F)(F)F)n1 [Compound I-0224],100 to 1000

row,Compound,IC50 [nM]
1,O=C(Cn1c(CCCC(F)(F)F)nc(-c2ccc(C(F)(F)F)cc2)cc1=O)NCCc1cn[nH]c1 [Compound I-0333],10 to 100
2,CC(C)(C)C(=O)Nc1cc(Cl)ccc1-c1cc(=O)n(Cc2cccc(C(=O)NCc3c[nH]nn3)c2)cn1 [Compound I-0488],100 to 1000
3,COCCCc1nc(-c2ccc(Cl)cc2)cc(=O)n1CC(=O)NCC1(CO)CC1 [Compound I-0231],100 to 1000
4,NC(=O)C1CCN(C(=O)Cn2c(CCCC(F)(F)F)nc(-c3ccc(C(F)(F)F)cc3)cc2=O)CC1 [Compound I-0342],10 to 100
5,CC1(O)CN(C(=O)Cn2c(CCCC(F)(F)F)nc(-c3ccc(C(F)(F)F)cc3)cc2=O)C1 [Compound I-0320],100 to 1000
6,O=C(c1cccc(Cn2c(CCCC(F)(F)F)nc(-c3ccc(Cl)cc3)cc2=O)c1)N1CCSCC1 [Compound I-0153],10 to 100
7,CCCCCc1nc(-c2ccc(Cl)cc2)cc(=O)n1CC(=O)N1CCC(C(=O)OC)CC1 [Compound I-0113],10 to 100
8,O=C(NCCN1CCNC1=O)c1cccc(Cn2c(CCCC(F)(F)F)nc(-c3ccc(Cl)cc3)cc2=O)c1 [Compound I-0171],100 to 1000
9,COC(=O)Nc1cc(Cl)ccc1-c1cc(=O)n(CC(=O)N2CCCC2(C)C)c(C)n1 [Compound I-0272],10 to 100
10,Cc1nc(-c2ccc(Cl)cc2NC(=O)C2CC2)cc(=O)n1CC(=O)NCC1(CO)COC1 [Compound I-0300],10 to 100
11,O=C1CCN(C(=O)c2cccc(Cn3c(CCCC(F)(F)F)nc(-c4ccc(Cl)cc4)cc3=O)c2)CCN1 [Compound I-0179],10 to 100
12,Cc1nc(-c2ccc(Cl)cc2NC(=O)C2CC2)cc(=O)n1CC(=O)NCC1CCC(=O)N1 (centres unmarked) [Compound I-0450],10 to 100
13,CCCCCc1nc(-c2ccc(Cl)cc2)cc(=O)n1CC(=O)NCc1ccccc1C(=O)O [Compound I-0054],100 to 1000
14,CCCCCc1nc(-c2ccc(Cl)cc2)cc(=O)n1CC(=O)N[C@@H](CO)Cc1ccccc1 [Compound I-0092],100 to 1000
15,Cc1nc(-c2ccc(Cl)cc2NC(=O)C2CC2)cc(=O)n1CC(=O)NCC1CNC(=O)O1 (centres unmarked) [Compound I-0456],10 to 100
16,Cc1nc(C2=CCC(C(F)(F)F)CC2)cc(=O)n1CC(=O)NCC1(CO)COC1 (centres unmarked) [Compound I-0268],≥ 1000
17,O=C(O)c1cccc(Cn2c(CCC(F)(F)F)nc(-c3ccc(Cl)cc3NC(=O)C3CC3)cc2=O)c1 [Compound I-0345],10 to 100

# Continued, values first:
row,IC50 [nM],Compound
1,10 to 100,N#CCCNC(=O)Cn1c(CCCC(F)(F)F)nc(-c2ccc(Cl)cc2)cc1=O [Compound I-0137]
2,10 to 100,N#CC1(NC(=O)Cn2c(CCCC(F)(F)F)nc(-c3ccc(Cl)cc3)cc2=O)CC1 [Compound I-0123]
3,< 10,Cc1nc(-c2ccc(Cl)cc2NC(=O)C2CC2)cc(=O)n1Cc1cccc(C(=O)O)c1 [Compound I-0279]
4,< 10,CCCCCc1nc(-c2ccc(Cl)cc2)cc(=O)n1CC(=O)N[C@H]1C[C@H](C(=O)O)C1 [Compound I-0071]
5,10 to 100,Cc1nc(-c2ccc(Cl)cc2NC(=O)C2CC2)cc(=O)n1CC(=O)NCC(C)(C)O [Compound I-0423]
6,< 10,O=C(c1cccc(Cn2c(CCCC(F)(F)F)nc(-c3ccc(Cl)cc3)cc2=O)c1)N1CCC(CO)CC1 [Compound I-0159]
7,10 to 100,CN(CCO)C(=O)Cn1c(CCCC(F)(F)F)nc(-c2ccc(C(F)(F)F)cc2)cc1=O [Compound I-0305]
8,10 to 100,COC(=O)Nc1cc(Cl)ccc1-c1cc(=O)n(CC(=O)N2CCC(C(=N)NO)CC2)c(C)n1 [Compound I-0471]
9,10 to 100,COC(=O)Nc1cc(Cl)ccc1-c1cc(=O)n(CC(=O)NC2(C(F)(F)F)CC2)c(C)n1 [Compound I-0455]
10,10 to 100,O=C(Cn1c(COCC(F)(F)F)nc(-c2ccc(Cl)cc2)cc1=O)NCC1(CO)CC1 [Compound I-0211]
11,10 to 100,O=C(Cn1c(CCCC(F)(F)F)nc(C2=CCC(C(F)(F)F)CC2)cc1=O)NCC1(CO)COC1 (centres unmarked) [Compound I-0339]
12,< 10,CCCCCc1nc(-c2ccc(Cl)cc2)cc(=O)n1CC(=O)NCC(=O)NCC(=O)O [Compound I-0055]
13,< 10,COC(=O)Nc1cc(C#N)ccc1-c1cc(=O)n(CC(=O)NCc2cc(=O)[nH]o2)c(C)n1 [Compound I-0429]
14,< 10,COC(=O)Nc1cc(Cl)ccc1-c1cc(=O)n(CC(=O)OC(C)(C)C)c(C)n1 [Compound I-0266]
15,< 10,O=C(Cn1c(CCCC(F)(F)F)nc(-c2ccc(Cl)cc2)cc1=O)NCc1cc(=O)[nH]o1 [Compound I-0120]
16,< 10,N#CC1(NC(=O)Cn2c(CCCC(F)(F)F)nc(-c3ccc(Cl)cc3F)cc2=O)CC1 [Compound I-0228]
17,< 10,CC(C)(C)OC(=O)Cn1c(CCCC(F)(F)F)nc(-c2ccc(Cl)cc2)cc1=O [Compound I-0206]
